Source: patent US6716437B1, “Topical composition and method for enhancing lipid barrier synthesis” (E-L Management Corporation, priority 1993, dated 2004)
Entries after “also recorded” stand apart in the source; their conditions may differ.

What was measured:
[1] = tested on: skin barrier; assay: Clinical study: skin barrier function by tape stripping and TEWL; type: in vivo, human; settings: twice a day, volar forearm
Description: B. Effect of cafestol on skin barrier function. Ten healthy female subjects, between the ages of 25-45. with normal skin on their forearms are tested in this study. […] They acclimate in the environmental room at 40% relative humidity and 70° F. for 20 minutes before their baseline measurements are recorded. They are then randomly assigned to one of two treatment groups.
Group I (n=5) receives treatment containing cafestol at 0.1% to use on one arm and a placebo to use on the other arm. Group II (n+5) uses a treatment containing 0.2% cafestol palmitate on one arm and a treatment containing 0.1% cafestol acetate on the other arm. The subjects self-administer the treatment twice a day on the lower part of their volar forearms except on the day of testing.
A five cm by two cm are is marked using a template on the lower inner forearm and initial water evaporation measurements are taken in three separate spots approximately 1 cm apart in a row. Five cm of the cello-tape is placed on the skin in the outlined area, starting from the top and after one firm stroke in each direction is removed by gently pulling in a downward direction parallel to the skin. The procedure is repeated and water evaporation is measured after every five to ten strips until the barrier is broken, as indicated by a minimum water evaporation of 18 g/sq m hr on one of the three spots. The subjects' transepidermal water loss (TEWL) is monitored on the challenged sites after 1, 2 and 3 days in order to measure the ability of the skin to repair itself. After 5 and 10 days of product treatment, the above procedure is repeated under the same test conditions on an adjacent new site.
TEWL is measured with the Servo Med Evaporimeter, fitted with a chimney and gauze. The subjects are in a relaxed inclined position, and are not allowed to converse or get excited. TEWL is recorded automatically using the Dia-Stron computer program set at a 30 second data acquisition time and a 15 second plateau.
B. Barrier strength measurements. Barrier strength is evaluated by challenging the skin with tape stripping and measuring the water evaporation (WE). To describe the experimental data, curve fitting Linear Regression Analysis based on least-square method is performed on each individual's data and the number of tape strippings required to reach a WE of 18 g/sq m/hr is recorded for each visit. The number of tape strippings required to perturb the barrier is a measure of its strength.

[2] = tested on: Living skin models; assay: Living skin models: ceramide/lipid production by HPTLC/TLC; type: cell-based
Description: A. Determination of cafestol activity. Living skin models (#1301) are obtained from Advanced Tissue Sciences and treated with cafestol acetate(Sigma)by addition of a stock solution prepared in cell culture medium in a dose-dependent manner from 0.01 mg/ml to 1.0 mg/ml, or in a time-dependent manner at 0.5 mg/ml for up to 7 days. All experiments are conducted with untreated controls. At each dose or time point, the skin models are homogenized and the lipids extracted with chloroform/methanol(2:1), taken to dryness, and resuspended in chloroform. Samples are chromatographed on HPTLC and their lipid composition visualized by degradative charring (Melnick et al., J. Invest. Dermatol 92:231-234, 1989)
B. Comparison of cafestol activity with coffee bean oil activity. To compare the lipid enhancing activity of cafestol with that of coffee bean oil, living skin models are treated over a period of five days with increasing amounts of cafestol acetate in a range from 0.01 mg/ml to 1.0 mg/ml. A parallel set of living skin squares is also tested with a sample of coffee bean oil (Robeco). At the end of the incubation period, each skin square is homogenized and its lipids extracted in chloroform/methanol (2:1). This is followed by TLC analysis. Ceramides are identified by degradative charring and comparison to ceramide standards. Densitometric analysis of the TLC plate is carried out with an Optimas Bioscan.

[3] = tested on: stratum corneum lipids; assay: Clinical study: ceramide levels on human skin by thin layer chromatography; type: in vivo
Description: A. Determination of cafestol activity on lipid production. […] A short clinical study, consisting of five subjects, is then carried out under the same conditions in order to test the ability of cafestol acetate to raise ceramide levels. At zero time, ethanol washes are performed in order to remove stratum corneum lipids from both arms. Cafestol acetate, prepared in ethanol at a concentration of 1 mg/ml, is applied twice a day with a pump spray to the right volar forearm. As a control, ethanol is applied at the corresponding site at the left arm. On day three, stratum corneum lipids are again removed and both zero time and day three lipids from both arms are evaluated by thin layer chromatography as described above.

[4] = tested on: Living skin models; assay: Histology of treated living skin models; type: cell-based; settings: living skin squares, fixed, sectioned, hematoxylin/eosin
Description: C. Histology. To determine the histological effect of cafestol application to living skin, skin squares are treated as described above; at the end of the incubation period, samples are fixed, sectioned and stained with hematoxylin/eosin.

## CC(=O)OC[C@@]1(O)C[C@@]23CC[C@@H]4c5ccoc5CC[C@@]4(C)[C@@H]2CC[C@@H]1C3 [cafestol acetate]
[1]; after 5 days of treatment
  increase in barrier strength (number of tape strippings to reach WE of 18 g/sq m/hr): 10%
[1]; after 10 days of treatment
  increase in barrier strength (number of tape strippings to reach WE of 18 g/sq m/hr): 38%
[2]; 0.01 mg/ml to 1.0 mg/ml
  ceramides as a function of dose (HPTLC): increase in ceramide production with increasing dosage; also recorded: selective increase in ceramides as a function of dose
[2]; 0.5 mg/ml for up to 7 days
  ceramides as a function of time (HPTLC): presence of ceramides after only one day of application, reaching maximum concentrations after three days

## CCCCCCCCCCCCCCCC(=O)OC[C@@]1(O)C[C@@]23CC[C@@H]4c5ccoc5CC[C@@]4(C)[C@@H]2CC[C@@H]1C3 [cafestol palmitate]
[1]; after 5 days of treatment
  increase in barrier strength (number of tape strippings to reach WE of 18 g/sq m/hr): 8%
[1]; after 10 days of treatment
  increase in barrier strength (number of tape strippings to reach WE of 18 g/sq m/hr): 43%

## C[C@@]12CCc3occc3[C@H]1CC[C@@]13C[C@@H](CC[C@H]12)[C@@](O)(CO)C3 [cafestol]
[3]; five subjects, 1 mg/ml in ethanol twice a day, volar forearm, day three
  ceramide I level: increased levels of ceramide I in four of the five subjects
[3]; initial test, single individual, applied directly to skin over three days
  ceramide I level: elevated
[3]; the subject without ceramide I increase, 1 mg/ml in ethanol twice a day, day three
  ceramide IV level: increase in ceramide IV
[2]; five days, 0.01 mg/ml to 1.0 mg/ml
  ceramide production, comparison with coffee bean oil (TLC, densitometric scan): dose-dependent increase in ceramide production
[4]
  stratum corneum (histological analysis): clear increase in stratum corneum
